From patent US12622917B2, “High-activity Wnt pathway inhibitor compound” (ADLAI NORTYE BIOPHARMA CO., LTD., priority 2020, dated 2026)

Assays:
Assay type in all cases: cell-based
[1] = tested on: Colo205-LUC-TCF/LEF M1 reporter cell line (Wnt pathway); test: Colo205-LUC-TCF/LEF M1 reporter gene (luciferase) inhibition; conditions: 4 hours incubation, luciferase readout
From the text: Colo205 cell line (Cell Bank of Chinese Academy of Sciences, Cat #TCHu102) was purchased from the Cell Bank of Chinese Academy of Sciences. After expansion and subculture, in the exponential growth phase of the cells, transfection with lipo3000 liposome transfection with TCF/LEF transcription factors Driven luciferase reporter plasmid (Promega). […] The plasmid carries a resistance gene for resistance screening. Transfection was carried out in 10 cm culture dishes using conventional complete medium without resistance. After 2 days, the medium with resistance was replaced, and the culture was continued. After that, the resistant medium was replaced every 2 days, and the suspended cells were discarded. The original medium was centrifuged to remove cells and debris and retained as an adaptive medium. When the cells covered the culture dish, the cells were digested, counted, and passaged in a 96-well plate, so that the average number of cells contained in each well was 1.5/well, and the adaptive medium was used for passage. The rest of the cells were frozen. After subculture, culture for 4 hours to allow the cells to adhere to the wall, and then observe the number of cells in each well under a microscope. Wells with only 1 cell per well were labeled as monoclonal wells. Afterwards, normal culture was performed, and the culture medium was replaced every 2 days, and observed. There are holes where the monoclonal cells continue to grow in the early stage, and they are labeled twice, and can be replaced with normal resistant medium. When a monoclonal well was overgrown with a 96-well plate, it is digested and passaged to a 24-well culture plate. After the 24-well plate is overgrown, it is passaged to a 96-well plate and a 6-well plate. The cells in a 96-well plate are at least 6 wells, of which 3 wells were added with known Wnt inhibitors, and the other 3 wells were not treated. After 24 hours, the cells in the 96-well plate were added with a fluorescence detection reagent to detect the fluorescence intensity. Cell lines with fluorescent expression when not treated and decreased fluorescent light after inhibition were selected and further cultured. The Colo205-LUC-TCF/LEF-M1 cell line is one of the cell lines screened above. Its growth curve, cell shape, and cell growth state are similar to those of the original Colo205 cells, and the ratio of the fluorescent signals of the inhibitor-treated and untreated cells is the largest among all cell lines, and the ratio can reach 4-5 times when inhibited at 4 hours, which was completely suitable for the screening of Wnt inhibitors in the later stage.
The Colo205-LUC-TCF/LEF M1 cell line is a reporter tool cell stably transfected with the pGL4.49-LUC2-TCF/LEF vector. The β-catenin Wnt pathway is continuously activated. After adding the inhibitor, the Wnt pathway is inhibited. The expression of firefly luciferase regulated by the[…] cis-element decreased, and after adding the detection substrate, the detected light signal decreased accordingly, so as to detect the inhibitory effect of the compound.
To a 96-well cell culture plate, add 100 uL of the compound with a maximum concentration of 20 uM to each well, and make a 3-fold serial dilution of the compound concentration. Then 10,000 colo205 cells stably transfected with the reporter gene and 100 uL medium were inoculated into each well, and corresponding positive and negative control wells were made at the same time. Put the cells in a 5% CO2 incubator and incubate at 37° C. for 4 hours. After 4 hours, remove the culture medium, add 100 uL of reagent (Promega) containing the corresponding firefly luciferase substrate to each well, and measure the activity of luciferase reporter gene. Luminescence intensity was read with SpectraMax in full wavelength mode. […]

Colo205 = test: Proliferation inhibition, Wnt mutant cell line Colo205; conditions: Homo sapiens, COLO 205; Colo205, Wnt pathway-dependent, 96 hours; read-out: Antiproliferative IC50 Colo205
From the text: (§1) The cell lines used in the experiment are Colo205 and DU4475 cell lines whose Wnt pathway is continuously activated and whose proliferation is Wnt pathway-dependent; while the BELA and RKO cell lines, whose Wnt pathway is not activated under normal circumstances and the proliferation is independent of Wnt pathway, as control cell lines. It is Judged that the inhibitory effect of the compound of the present invention on Wnt-dependent proliferation is not caused by other non-specific toxicity.
(§2) Treat the Colo205, Du4475, HELA and RKO cell lines cultured in their respective mediums in the logarithmic growth phase, collect the cells and prepare a uniform cell suspension of known concentration, and then add it to the 96-well cell culture plate Cell suspension, so that each well contains 1000 cells. Put it into a 5% CO2 incubator and incubate at 37° C. for 20-24 h. On the second day, the fully dissolved, 3-fold serially diluted compound was added to each cell culture well, so that the final maximum concentration in the cell culture well was 20 uM, and the culture was continued for 96 hours. In this test, Promega's cell viability detection test is used for detection. The more the cells proliferate, the stronger the final signal intensity will be. The detection instrument is SpectraMax, full wavelength mode. The wells only added with DMSO were used as positive control wells, and the wells that were not inoculated with cells were used as negative control wells. […] The IC50 value of cell proliferation inhibition was used to evaluate the inhibitory effect of the compound on the Wnt pathway and the toxic effect on normal cells (Table 2).

DU4475 = test: Proliferation inhibition, Wnt mutant cell line DU4475; conditions: Homo sapiens, DU-4475; DU4475, Wnt pathway-dependent, 96 hours; read-out: Antiproliferative IC50 DU4475
From the text: as §1, §2

RKO = test: Proliferation inhibition, non-Wnt mutant control cell line RKO; conditions: Homo sapiens, Wnt-independent control cell line, 96 hours, read-out: Antiproliferative IC50 RKO
From the text: as §1, §2

HepG2 = test: Proliferation inhibition, HepG2 cell line; conditions: Homo sapiens; HepG2 cells, 96 hours culture, cell viability detection; read-out: Antiproliferative IC50 HepG2
From the text: The cell lines used in the test are NCI-H929 and HepG2 cell lines whose Wnt pathway is continuously activated and whose proliferation is Wnt pathway-dependent; the inhibitory effect of the compound of the present invention on Wnt-dependent proliferation is judged.
Treat the NCI-H929 and HepG2 cell lines cultured in their respective mediums in the logarithmic growth phase, collect the cells and prepare a uniform cell suspension of known concentration, and then add the cell suspension to the 96-well cell culture plate solution so that each well contains 4000 cells. Put it into a […] incubator and incubate at 37° C. for 20-24 h. On the second day, the fully dissolved, 3-fold serially diluted compound was added to each cell culture well, so that the final maximum concentration in the cell culture well was 20 uM, and the culture was continued for 96 hours. In this test, Promega's cell viability detection test is used for detection. The more the cells proliferate, the stronger the final signal intensity will be. The detection instrument is SpectraMax, full wavelength mode. The wells only added with DMSO were used as positive control wells, and the wells that were not inoculated with cells were used as negative control wells. […] The IC50 value of cell proliferation inhibition was used to evaluate the inhibitory effect of the compound on the Wnt pathway and the toxic effect on normal cells (Table 3).

IC50 [1] [nM]	IC50 (Colo205) [nM]	IC50 (HepG2) [nM]	SMILES	IC50 (DU4475) [nM]	IC50 (RKO) [nM]
7	8.3		COC[C@H]1Cn2ccc3nc(NCc4ccc(OC5CCC(F)(F)CC5)nc4)nc(c32)N1C [85 (W132)]	11.6	5500
	31		C[C@H]1C(=O)N2CCCc3nc(NCc4ccc(OC5CCC(F)(F)CC5)nc4)nc(c32)N1C [98 (W188)]	31	> 10000
31	48		CO[C@@H](C)[C@H]1C(=O)N2CCCc3nc(NCc4ccc(Oc5ccc(C(F)(F)F)nc5)nc4)nc(c32)N1C [113 (W247), (S)-5-((S)-1-methoxyethyl)-4-methyl-2-(((6-((6-(trifluoromethyl)pyridin-3-yl)oxo)pyridin-3-yl)methyl)amino)-4,5,9,10-tetrahydro-6H,8H-pyrido[3,2,1-de]pteridin-6-one]	64	> 10000
	87		CN1c2nc(NCc3ccc(Oc4ccc(C(F)(F)F)nc4)nc3)nc3c2N(CCC3)C(=O)[C@@H]1C(C)(C)O [122 (W272), (S)-5-(2-hydroxypropan-2-yl)-4-methyl-2-(((6-((6-(trifluoromethyl)pyridin-3-yl)oxo)pyridine-3-yl)methyl)amino)-4,5,9,10-tetrahydro-6H,8H-pyrido[3,2,1-de]pteridin-6-one]	58	> 10000
	152		O=C1[C@@H]2COCCN2c2nc(NCc3ccc(Oc4ccc(C(F)(F)F)nc4)nc3)nc3c2N1CCC3 [124 (W278), (S)-2-(((6-((6-(trifluoromethyl)pyridin-3-yl)oxo)pyridin-3-yl)methyl)amino)-5,6,8a,9, 11,12-Hexahydro-4H,8H-[1,4]oxazino[3,4-h]pyrido[3,2,1-de]pteridin-8-one]	51	> 10000
25	48		C[C@H]1C(=O)N2CCCc3nc(NCc4ccc(Cc5ccc(C(F)(F)F)cc5)nc4)nc(c32)N1C [138 (W271), (S)-4,5-dimethyl-2-(((6-(4-(trifluoromethyl)benzyl)pyridin-3-yl)methyl)amino)-4,5,9, 10-tetrahydro-6H,8H-pyrido[3,2,1-de]pteridin-6-one]	40	> 10000
	43		CN1c2nc(NCc3ccc(Oc4cnc(C(F)(F)F)nc4)nc3)nc3c2N(CCC3)C(=O)[C@@H]1C(C)(C)O [145 (W331)]	53	> 10000
31	27		CC(C)[C@H]1C(=O)N2CCCc3nc(NCc4ccc(Cn5ccc(C(F)(F)F)n5)nc4)nc(c32)N1C [148 (W250)]	13	> 10000
30	37		COC[C@H]1C(=O)N2CCCc3nc(NCc4ccc(Oc5cnc(C(F)(F)F)nc5)nc4)nc(c32)N1C [154 (W258)]	30	> 10000
39	27		CO[C@H](C)[C@H]1C(=O)N2CCCc3nc(NCc4ccc(Oc5cnc(C(F)(F)F)nc5)nc4)nc(c32)N1C [156 (W264)]	13	> 10000
24	31		O=C1[C@@H]2CCCN2c2nc(NCc3ccc(Oc4cnc(C(F)(F)F)nc4)nc3)nc3c2N1CCC3 [157 (W262)]	18	> 10000
2	4.6		CC(C)[C@H]1C(=O)N2CCCc3nc(NCc4ccc(Oc5cnc(C(F)(F)F)nc5)nc4)nc(c32)N1C [159 (W259)]	< 0.5	> 10000
	66		CN1c2nc(NCc3ccc(Oc4cnc(C(F)(F)F)nc4)nc3)nc3c2N(CCC3)C(=O)[C@@H]1c1cccc(F)c1 [174 (W314)]	37	> 10000
7	10.9	24	[2H]C([2H])([2H])OC[C@@]1(C)C(=O)N2CCCc3nc(NCc4ccc(Oc5ccc(C(F)(F)F)nc5)nc4)nc(c32)N1C([2H])([2H])[2H] [182 (W395)]		> 10000
69	63		CN1c2nc(NCc3ccc(Oc4ccc(C(F)(F)F)nc4)nc3)nc3c2N(CCC3)C(=O)[C@@H]1C(F)(F)F [185 (W310)]	99	> 10000
17	8.5	3.5	CN1c2nc(NCc3ccc(Oc4ccc(C(F)(F)F)nc4)nc3)nc3c2N(CCC3)C(=O)C1CC(F)(F)F (stereo not shown) [189 (W306)]		> 10000
17	8.8	2.3	CN1c2nc(NCc3ccc(Oc4cnc(C(F)(F)F)nc4)nc3)nc3c2N(CCC3)C(=O)C1CC(F)(F)F (stereo not shown) [198 (W307)]		> 10000
	42	50.8	C[C@H]1C(=O)N2CCCc3nc(NCc4cnn(Cc5cc(C(F)(F)F)nn5C5CC5)c4)nc(c32)N1C [230 (W415)]		> 10000
< 0.5	1.6	< 0.5	COc1nc(C(F)(F)F)ccc1Oc1ccc(CNc2nc3c4c(n2)N(C)[C@@H](C)C(=O)N4CCC3)cn1 [231 (W417)]		> 10000
	51	66.2	CN1c2nc(NCc3ccc(Oc4cc(C(F)(F)F)nn4C4CCOC4)nc3)nc3c2N(CCC3)C(=O)[C@]1(C)CO (stereo partly shown) [234 (W420)]		> 10000
16.6	11.1		C[C@H](O)[C@@]1(C)C(=O)N2CCCc3nc(NCc4ccc(Oc5cnc(C(F)(F)F)nc5)nc4)nc(c32)N1C [240 (W428)]		> 10000
9.3	11.5		[2H]C([2H])([2H])n1nc(C(F)(F)F)cc1Oc1ccc(CNc2nc3c4c(n2)N(C)[C@@H](CO)C(=O)N4CCC3)cn1 [241 (W431)]		> 10000
